Laboratory results as given in patent publication US10913757B2, “Hydroxycinnamic derivatives, methods and uses thereof” (UNIVERSIDADE DO PORTO, priority 2016, dated 2021).

What was measured:
[1] = tested on: rat liver mitochondria (RLM); assay: Mitochondrial transmembrane electric potential (ΔΨ) of RLM, safranine fluorescence; assay type: biochemical
Method: (§1) In an embodiment, and as an example, AntiOxCINs and MitoQ toxicity effects on the mitochondrial bioenergetics, namely on RLM ΔΨ and mitochondrial respiration parameters, were measured. The […] represents the main component of the electrochemical gradient generated by mitochondrial respiration and accounts for more than 90% of the total available energy. For mitochondrial respiration assays, glutamate/malate (for complex I) and succinate (for complex II) were used as substrates. In addition, the mitochondrial oxidative phosphorylation coupling index, known as respiratory control ratio (RCR, state 3/state 4 respiration) and ADP/O index (the coupling between ATP synthesis and oxygen consumption) were also calculated. AntiOxCINs and MitoQ were tested at antioxidant-relevant concentrations, with 10 μM being the highest concentration.
(§2) In an embodiment, the evaluation of AntiOxCINs functional mitochondrial toxicity profile was performed in rat liver mitochondria (RLM). […] The protein concentration was determined by the biuret assay using BSA as a standard.
Then, 1 μM FCCP was added at the end of all experiments to depolarize mitochondria. ΔΨ was calculated using a calibration curve obtained when RLM were incubated in a K^+-free reaction medium containing 200 mM sucrose, 1 mM NaH2PO4, 10 mM Tris (pH 7.4) and 10 μM EGTA, supplemented with 0.4 μg valinomicin. […] “Repolarization” corresponded to the recovery of membrane potential after the complete phosphorylation of ADP added. Lag phase reflected the time required to phosphorylate the added ADP. […] Data are means±SEM of five independent experiments.

[2] = tested on: rat liver mitochondria (RLM); assay: Mitochondrial respiration of isolated RLM (Clark-type oxygen electrode); assay type: biochemical; settings: for effect on state 3 respiration: all tested concentrations (2.5-10 μM), FIG. 6B-H
Method: as §1, §2
In an embodiment, the evaluation of AntiOxCINs effect on mitochondrial respiration was performed as follows: the respiration of isolated RLM was evaluated polarographically with a Clark-type oxygen electrode, connected to a suitable recorder in a 1 mL thermostated water-jacketed chamber with magnetic stirring, at 37° C.^1. […] Increasing concentrations of AntiOxCINs (2.5-10 μM) were added to the reaction medium containing respiratory substrates glutamate/malate (10 mM and 5 mM respectively) or succinate (5 mM) and RLM (1 mg) and allowed to incubate for a 5 min period prior to the assay. State 2 was considered as the respiration during the 5 min incubation time with AntiOxCINs. […] State 4 was determined after ADP phosphorylation finished. Subsequent addition of oligomycin (2 μg/ml) inhibited ATP-synthase and originated the oligomycin-inhibition respiration state. Finally, 1 μM FCCP was added to induce uncoupled respiration.

[3] = Lipophilic properties by electrochemistry at ITIES (transfer potential); assay type: physicochemical; settings: aqueous phase to 1,6-dichlorohexane, DPV, C=0.32 mM
Method: In an embodiment, AntiOxCINs lipophilic properties were evaluated at physiological pH by electrochemistry. The used technique is often used to mimic the transfer of ionic drugs through biological membranes as the process occurs at the interface between two immiscible electrolyte solutions (ITIES). The transfer potential (Etr) at which the ionic drug, initially present in the aqueous phase (C=0.32 mM), is transferred to the 1,6-dichlorohexane (DCH) phase is measured by differential pulse voltammetry (DPV). In the ITIES model, the transfer potential (Etr) becomes less positive with the increasing of the drug lipophilic character.
In an embodiment, the electrochemical analytical data was obtained using a computer controlled potentiostat Autolab PGSTAT302N (Metrohm Autolab, Utrecht, Netherlands). Generally, cyclic voltammetry (CV) data was acquired at a scan rate of 50 mVs^−1. Differential pulse voltammetry (DPV) results were acquired at a step potential of 4 mV, pulse amplitude of 50 mV and scan rate of 8 mVs^−1. The electrochemical signals were monitored by the General Purpose Electrochemical System (GPES) version 4.9, software package. All electrochemical experiments were performed at room temperature in an electrochemical cell that was placed in a Faraday cage in order to minimize the contribution of background noise to the analytical signal.
In an embodiment, the process of evaluation of AntiOxCINs redox properties was conducted as follows: stock solutions of each compound (10 mM) were prepared by dissolving the appropriate amount in ethanol. The voltammetric working solutions were prepared in the electrochemical cell, at a final concentration of 0.1 mM. The […] supporting electrolyte was prepared by diluting […] to 100 mL. Voltammetric data was acquired in a three-electrode system consisting of a glassy carbon electrode (GCE, d=2 mm) as working electrode, a counter electrode of platinum wire and a saturated Ag/AgCl reference electrode. In an embodiment, the evaluation of AntiOxCINs lipophilic properties was performed as follows: the electrochemical cell was a four-electrode system with arrays of micro liquid-liquid interfaces (μlTIES) containing two Ag/AgCl reference electrodes and two counter electrodes of Pt, one in each phase. The microporous membrane was sealed with a fluorosilicone sealant (Dow Corning 730) onto a glass cylinder which was filled with 4.0 mL of the aqueous phase, where the aliquots of AntiOxCINs solutions were added. The membrane was then immersed into the organic phase contained in the cell. The organic phase reference solution (a 2 mM BTPPACI+2 mM NaCl aqueous solution) was mechanically stabilized The aqueous supporting electrolyte solution was a Tris-HCl buffer 10 mM pH 7.0.

CS(=O)(=O)[O-].O=C(/C=C/c1ccc(O)c(O)c1)NCCCCCC[P+](c1ccccc1)(c1ccccc1)c1ccccc1 [AntiOxCIN2, (E)-(6-(3-(3,4-dihydroxyphenyl)prop-2-enamido)hexyl)triphenylphosphonium methanesulfonate]
ADP-induced depolarization (ΔΨ in - mV) ([1]; glutamate/malate, 2.5 μM): 186.2 ± 8.9 mV
Lag Phase ([1]; glutamate/malate, 2.5 μM): 81.2 ± 7.2 s
Maximum potential (ΔΨ in - mV) ([1]; glutamate/malate, 2.5 μM): 208.4 ± 10.1 mV
Repolarization Potential (ΔΨ in - mV) ([1]; glutamate/malate, 2.5 μM): 205.1 ± 9.0 mV
ADP-induced depolarization (ΔΨ in - mV) ([1]; glutamate/malate, 5 μM): 199.2 ± 13.3 mV
Lag Phase ([1]; glutamate/malate, 5 μM): 79.5 ± 7.0 s
Maximum potential (ΔΨ in - mV) ([1]; glutamate/malate, 5 μM): 214.8 ± 11.7 mV
Repolarization Potential (ΔΨ in - mV) ([1]; glutamate/malate, 5 μM): 214.0 ± 12.5 mV
ADP-induced depolarization (ΔΨ in - mV) ([1]; glutamate/malate, 10 μM): 193.3 ± 9.1 mV
Lag Phase ([1]; glutamate/malate, 10 μM): 88.7 ± 25.1 s
Maximum potential (ΔΨ in - mV) ([1]; glutamate/malate, 10 μM): 209.8 ± 9.4 mV
Repolarization Potential (ΔΨ in - mV) ([1]; glutamate/malate, 10 μM): 202.0 ± 8.0 mV
ADP-induced depolarization (ΔΨ in - mV) ([1]; succinate, 2.5 μM): 169.3 ± 4.0 mV
Lag Phase ([1]; succinate, 2.5 μM): 101.2 ± 7.5 s
Maximum potential (ΔΨ in - mV) ([1]; succinate, 2.5 μM): 190.5 ± 5.9 mV
Repolarization Potential (ΔΨ in - mV) ([1]; succinate, 2.5 μM): 191.5 ± 7.5 mV
ADP-induced depolarization (ΔΨ in - mV) ([1]; succinate, 5 μM): 174.9 ± 5.5 mV
Lag Phase ([1]; succinate, 5 μM): 64.6 ± 19.4 s
Maximum potential (ΔΨ in - mV) ([1]; succinate, 5 μM): 189.7 ± 8.0 mV
Repolarization Potential (ΔΨ in - mV) ([1]; succinate, 5 μM): 189.5 ± 9.0 mV
ADP-induced depolarization (ΔΨ in - mV) ([1]; succinate, 10 μM): 178.7 ± 6.3 mV
Lag Phase ([1]; succinate, 10 μM): 46.2 ± 12.4 s
Maximum potential (ΔΨ in - mV) ([1]; succinate, 10 μM): 190.0 ± 6.3 mV
Repolarization Potential (ΔΨ in - mV) ([1]; succinate, 10 μM): 186.6 ± 7.1 mV
effect on state 3 respiration [2]: decrease
ADP/O ([2]; glutamate/malate, 2.5 μM): 2.4 ± 0.04
RCR (respiratory control ratio, state 3/state 4) ([2]; glutamate/malate, 2.5 μM): 5.2 ± 1.0
ADP/O ([2]; glutamate/malate, 5 μM): 2.2 ± 0.1
RCR (respiratory control ratio, state 3/state 4) ([2]; glutamate/malate, 5 μM): 3.9 ± 0.6
ADP/O ([2]; glutamate/malate, 10 μM): 2.2 ± 0.1
RCR (respiratory control ratio, state 3/state 4) ([2]; glutamate/malate, 10 μM): 3.4 ± 0.3
ADP/O ([2]; succinate, 2.5 μM): 1.4 ± 0.1
RCR (respiratory control ratio, state 3/state 4) ([2]; succinate, 2.5 μM): 3.3 ± 0.2
ADP/O ([2]; succinate, 5 μM): 1.3 ± 0.1
RCR (respiratory control ratio, state 3/state 4) ([2]; succinate, 5 μM): 3.3 ± 0.2
ADP/O ([2]; succinate, 10 μM): 1.1 ± 0.1
RCR (respiratory control ratio, state 3/state 4) ([2]; succinate, 10 μM): 2.1 ± 0.2
Etr (transfer potential) [3]: 0.396 V

CS(=O)(=O)[O-].O=C(/C=C/c1ccc(O)c(O)c1)NCCCCCCCC[P+](c1ccccc1)(c1ccccc1)c1ccccc1 [AntiOxCIN3, (E)-(8-(3-(3,4-dihydroxyphenyl)acrylamido)octyl)triphenylphosphoniummethanesulfonate]
initial slight hyperpolarization ([1]; 2.5 μM): 10 mV
ADP-induced depolarization (ΔΨ in - mV) ([1]; glutamate/malate, 2.5 μM): 199.4 ± 7.4 mV
Lag Phase ([1]; glutamate/malate, 2.5 μM): 65.8 ± 6.6 s
Maximum potential (ΔΨ in - mV) ([1]; glutamate/malate, 2.5 μM): 238.0 ± 9.8 mV
Repolarization Potential (ΔΨ in - mV) ([1]; glutamate/malate, 2.5 μM): 234.8 ± 10.3 mV
ADP-induced depolarization (ΔΨ in - mV) ([1]; glutamate/malate, 5 μM): 200.7 ± 5.5 mV
Lag Phase ([1]; glutamate/malate, 5 μM): 68.2 ± 9.6 s
Maximum potential (ΔΨ in - mV) ([1]; glutamate/malate, 5 μM): 238.9 ± 8.6 mV
Repolarization Potential (ΔΨ in - mV) ([1]; glutamate/malate, 5 μM): 235.0 ± 8.4 mV
ADP-induced depolarization (ΔΨ in - mV) ([1]; glutamate/malate, 10 μM): 302.5 ± 6.3 mV
Lag Phase ([1]; glutamate/malate, 10 μM): 73.8 ± 12.1 s
Maximum potential (ΔΨ in - mV) ([1]; glutamate/malate, 10 μM): 238.0 ± 6.7 mV
Repolarization Potential (ΔΨ in - mV) ([1]; glutamate/malate, 10 μM): 231.5 ± 7.2 mV
ADP-induced depolarization (ΔΨ in - mV) ([1]; succinate, 2.5 μM): 171.5 ± 7.3 mV
Lag Phase ([1]; succinate, 2.5 μM): 84.6 ± 16.7 s
Maximum potential (ΔΨ in - mV) ([1]; succinate, 2.5 μM): 191.2 ± 9.1 mV
Repolarization Potential (ΔΨ in - mV) ([1]; succinate, 2.5 μM): 186.7 ± 9.3 mV
ADP-induced depolarization (ΔΨ in - mV) ([1]; succinate, 5 μM): 174.5 ± 7.7 mV
Lag Phase ([1]; succinate, 5 μM): 92.0 ± 10.3 s
Maximum potential (ΔΨ in - mV) ([1]; succinate, 5 μM): 193.3 ± 7.6 mV
Repolarization Potential (ΔΨ in - mV) ([1]; succinate, 5 μM): 190.4 ± 8.3 mV
ADP-induced depolarization (ΔΨ in - mV) ([1]; succinate, 10 μM): 172.2 ± 7.5 mV
Lag Phase ([1]; succinate, 10 μM): 79.8 ± 17.6 s
Maximum potential (ΔΨ in - mV) ([1]; succinate, 10 μM): 189.7 ± 7.8 mV
Repolarization Potential (ΔΨ in - mV) ([1]; succinate, 10 μM): 184.2 ± 7.6 mV
effect on state 3 respiration [2]: increase
ADP/O ([2]; glutamate/malate, 2.5 μM): 2.4 ± 0.2
RCR (respiratory control ratio, state 3/state 4) ([2]; glutamate/malate, 2.5 μM): 3.8 ± 0.5
ADP/O ([2]; glutamate/malate, 5 μM): 2.7 ± 0.2
RCR (respiratory control ratio, state 3/state 4) ([2]; glutamate/malate, 5 μM): 3.5 ± 0.5
ADP/O ([2]; glutamate/malate, 10 μM): 2.4 ± 0.1
RCR (respiratory control ratio, state 3/state 4) ([2]; glutamate/malate, 10 μM): 3.3 ± 0.3
ADP/O ([2]; succinate, 2.5 μM): 1.6 ± 0.1
RCR (respiratory control ratio, state 3/state 4) ([2]; succinate, 2.5 μM): 4.1 ± 0.5
ADP/O ([2]; succinate, 5 μM): 1.8 ± 0.3
RCR (respiratory control ratio, state 3/state 4) ([2]; succinate, 5 μM): 4.7 ± 0.7
ADP/O ([2]; succinate, 10 μM): 1.6 ± 0.1
RCR (respiratory control ratio, state 3/state 4) ([2]; succinate, 10 μM): 3.9 ± 0.6
Etr (transfer potential) [3]: 0.345 V
